biological target: T1, recombinant His-tag Y220C p53 DBD protein (Homo sapiens, UniProt P04637, Y220C); experiment: In vitro DNA binding activity assay (TR-FRET): binding of His-tag Y220C p53 DBD to biotin-labeled consensus DNA; assay type: biochemical; conditions: SC150 = concentration to increase DNA binding by […], His-tag Y220C p53 DBD, biotin-labeled consensus DNA
T1 construct: recombinant His-tag Y220C p53 DBD protein (amino acids #˜94-312)

SMILES	Y220C SC150 (μM)
CN1CC[C@@H](Nc2cccc3c2cc(-c2noc(CNC(=O)c4ccn(C5CCOC5)c4)n2)n3CC(F)(F)F)[C@@H](F)C1 (stereo partly drawn) [Compound 323B, N-{[3-(4-{[(3S,4R)-3-fluoro-1-methylpiperidin-4-yl]amino}-1-(2,2,2-trifluoroethyl)-1H-indol-2-yl)-1,2,4-oxadiazol-5-yl]methyl}-1-(oxolan-3-yl)-1H-pyrrole-3-carboxamide]	* (* = 0 μM ≤ SC150 < 0.1 μM)
CCN1CC[C@@H](Nc2cccc3c2cc(-c2noc(CNC(=O)c4ccn(C5CCOC5)c4)n2)n3CC(F)(F)F)[C@@H](F)C1 (stereo partly drawn) [Compound 324B, N-{[3-(4-{[(3S,4R)-1-ethyl-3-fluoropiperidin-4-yl]amino}-1-(2,2,2-trifluoroethyl)-1H-indol-2-yl)-1,2,4-oxadiazol-5-yl]methyl}-1-(oxolan-3-yl)-1H-pyrrole-3-carboxamide]	* (* = 0 μM ≤ SC150 < 0.1 μM)
CN1CC[C@@H](Nc2cccc3c2cc(-c2noc(CNC(=O)c4cnn(C5CCOCC5)c4)n2)n3CC(F)(F)F)[C@@H](F)C1 [Compound 325B, N-{[3-(4-{[(3S,4R)-3-fluoro-1-methylpiperidin-4-yl]amino}-1-(2,2,2-trifluoroethyl)-1H-indol-2-yl)-1,2,4-oxadiazol-5-yl]methyl}-1-(oxan-4-yl)-1H-pyrazole-4-carboxamide]	* (* = 0 μM ≤ SC150 < 0.1 μM)
CN1CC[C@@H](Nc2cccc3c2cc(-c2noc(CNC(=O)c4cnn(C5CCCCC5)c4)n2)n3CC(F)(F)F)[C@@H](F)C1 [Compound 326B, 1-cyclohexyl-N-{[3-(4-{[(3S,4R)-3-fluoro-1-methylpiperidin-4-yl]amino}-1-(2,2,2-trifluoroethyl)-1H-indol-2-yl)-1,2,4-oxadiazol-5-yl]methyl}-1H-pyrazole-4-carboxamide]	* (* = 0 μM ≤ SC150 < 0.1 μM)
CN1CC[C@@H](Nc2cccc3c2cc(-c2noc(CNC(=O)c4cn(C5CC5)cn4)n2)n3CC(F)(F)F)[C@@H](F)C1 [Compound 327B, 1-cyclopropyl-N-{[3-(4-{[(3S,4R)-3-fluoro-1-methylpiperidin-4-yl]amino}-1-(2,2,2-trifluoroethyl)-1H-indol-2-yl)-1,2,4-oxadiazol-5-yl]methyl}-1H-imidazole-4-carboxamide]	* (* = 0 μM ≤ SC150 < 0.1 μM)
CC(C)(C)n1ccc(C(=O)NCc2nc(-c3cc4c(NC5CCC(F)(F)CC5)cccc4n3CC(F)(F)F)no2)c1 [Compound 328B, 1-tert-butyl-N-[(3-{4-[(4,4-difluorocyclohexyl)amino]-1-(2,2,2-trifluoroethyl)-1H-indol-2-yl}-1,2,4-oxadiazol-5-yl)methyl]-1H-pyrrole-3-carboxamide]	* (* = 0 μM ≤ SC150 < 0.1 μM)
CC(C)(C)n1cnc(C(=O)NCc2nc(-c3cc4c(N[C@@H]5CCN(C6CC6)C[C@@H]5F)cccc4n3CC(F)(F)F)no2)c1 [Compound 329B]	* (* = 0 μM ≤ SC150 < 0.1 μM)
CC(C)(C)n1ccc(C(=O)NCc2nc(-c3cc4c(N[C@@H]5CCN(C6CC6)C[C@@H]5F)cccc4n3CC(F)(F)F)no2)c1 [Compound 330B, 1-tert-butyl-N-{[3-(4-{[(3S,4R)-1-cyclopropyl-3-fluoropiperidin-4-yl]amino}-1-(2,2,2-trifluoroethyl)-1H-indol-2-yl)-1,2,4-oxadiazol-5-yl]methyl}-1H-pyrrole-3-carboxamide]	* (* = 0 μM ≤ SC150 < 0.1 μM)
CC(C)(C)n1cc(C(=O)NCc2nc(-c3cc4c(N[C@@H]5CCCC[C@@H]5F)cccc4n3CC(F)(F)F)no2)cn1 [Compound 331B, 1-tert-butyl-N-{[3-(4-{[(1R,2S)-2-fluorocyclohexyl]amino}-1-(2,2,2-trifluoroethyl)-1H-indol-2-yl)-1,2,4-oxadiazol-5-yl]methyl}-1H-pyrazole-4-carboxamide]	* (* = 0 μM ≤ SC150 < 0.1 μM)
CC(C)(C)n1ccc(C(=O)NCc2nc(-c3cc4c(NC5CCn6nccc6C5)cccc4n3CC(F)(F)F)no2)c1 (stereo not shown) [Compound 332B, 1-tert-butyl-N-({3-[4-({4H,5H,6H,7H-pyrazolo[1,5-a]pyridin-5-yl}amino)-1-(2,2,2-trifluoroethyl)-1H-indol-2-yl]-1,2,4-oxadiazol-5-yl}methyl)-1H-pyrrole-3-carboxamide]	* (* = 0 μM ≤ SC150 < 0.1 μM)
CCN1CC[C@@H](Nc2cccc3c2cc(-c2noc(CNC(=O)c4ccn(C5CCOCC5)c4)n2)n3CC(F)(F)F)[C@@H](F)C1 [Compound 333B, N-{[3-(4-{[(3S,4R)-1-ethyl-3-fluoropiperidin-4-yl]amino}-1-(2,2,2-trifluoroethyl)-1H-indol-2-yl)-1,2,4-oxadiazol-5-yl]methyl}-1-(oxan-4-yl)-1H-pyrrole-3-carboxamide]	* (* = 0 μM ≤ SC150 < 0.1 μM)
CCN1CC[C@@H](Nc2cccc3c2cc(-c2noc(CNC(=O)c4cnn(C5CCOCC5)c4)n2)n3CC(F)(F)F)[C@@H](F)C1 [Compound 334B, N-{[3-(4-{[(3S,4R)-1-ethyl-3-fluoropiperidin-4-yl]amino)-1-(2,2,2-trifluoroethyl)-1H-indol-2-yl)-1,2,4-oxadiazol-5-yl]methyl}-1-(oxan-4-yl)-1H-pyrazole-4-carboxamide]	* (* = 0 μM ≤ SC150 < 0.1 μM)
CN1CC[C@@H](Nc2cccc3c2cc(-c2noc(CNC(=O)c4ccn(C5CCOCC5)c4)n2)n3CC(F)(F)F)[C@@H](F)C1 [Compound 335B, N-{[3-(4-{[(3S,4R)-3-fluoro-1-methylpiperidin-4-yl]amino}-1-(2,2,2-trifluoroethyl)-1H-indol-2-yl)-1,2,4-oxadiazol-5-yl]methyl}-1-(oxan-4-yl)-1H-pyrrole-3-carboxamide]	* (* = 0 μM ≤ SC150 < 0.1 μM)

Other lines, results leading:

Y220C SC150 (μM)	SMILES
* (* = 0 μM ≤ SC150 < 0.1 μM)	COCCN1CC[C@@H](Nc2cccc3c2cc(-c2noc(CNC(=O)c4ccn(C(C)(C)C)c4)n2)n3CC(F)(F)F)[C@@H](F)C1 [Compound 337B, 1-tert-butyl-N-{[3-(4-{[(3S,4R)-3-fluoro-1-(2-methoxyethyl)piperidin-4-yl]amino}-1-(2,2,2-trifluoroethyl)-1H-indol-2-yl)-1,2,4-oxadiazol-5-yl]methyl}-1H-pyrrole-3-carboxamide]
* (* = 0 μM ≤ SC150 < 0.1 μM)	COCCN1CC[C@@H](Nc2cccc3c2cc(-c2noc(CNC(=O)c4cnn(C(C)(C)C)c4)n2)n3CC(F)(F)F)[C@@H](F)C1 [Compound 338B, 1-tert-butyl-N-{[3-(4-{[(3S,4R)-3-fluoro-1-(2-methoxyethyl)piperidin-4-yl]amino}-1-(2,2,2-trifluoroethyl)-1H-indol-2-yl)-1,2,4-oxadiazol-5-yl]methyl}-1H-pyrazole-4-carboxamide]
* (* = 0 μM ≤ SC150 < 0.1 μM)	CN1CC[C@@H](Nc2cccc3c2cc(-c2noc(CNC(=O)c4cnn(C5CCC(F)C5)c4)n2)n3CC(F)(F)F)[C@@H](F)C1 (stereo partly drawn) [Compound 339B, N-{[3-(4-{[(3S,4R)-3-fluoro-1-methylpiperidin-4-yl]amino}-1-(2,2,2-trifluoroethyl)-1H-indol-2-yl)-1,2,4-oxadiazol-5-yl]methyl}-1-(3-fluorocyclopentyl)-1H-pyrazole-4-carboxamide]
* (* = 0 μM ≤ SC150 < 0.1 μM)	CN1CC[C@@H](Nc2cccc3c2cc(-c2noc(CNC(=O)c4cn(C(C)(C)CF)cn4)n2)n3CC(F)(F)F)[C@@H](F)C1 [Compound 342B, N-{[3-(4-{[(3S,4R)-3-fluoro-1-methylpiperidin-4-yl]amino}-1-(2,2,2-trifluoroethyl)-1H-indol-2-yl)-1,2,4-oxadiazol-5-yl]methyl}-1-(1-fluoro-2-methylpropan-2-yl)-1H-imidazole-4-carboxamide]
* (* = 0 μM ≤ SC150 < 0.1 μM)	CC(C)(C)n1ccc(C(=O)NCc2nc(-c3cc4c(N[C@H]5CC[C@@H](F)CC5)cccc4n3CC(F)(F)F)no2)c1 [Compound 343B, 1-tert-butyl-N-{[3-(4-{[(1s,4s)-4-fluorocyclohexyl]amino}-1-(2,2,2-trifluoroethyl)-1H-indol-2-yl)-1,2,4-oxadiazol-5-yl]methyl}-1H-pyrrole-3-carboxamide]
* (* = 0 μM ≤ SC150 < 0.1 μM)	CN1CC[C@@H](Nc2cccc3c2cc(-c2noc(CNC(=O)c4cnn(C5CCC(F)(F)C5)c4)n2)n3CC(F)(F)F)[C@@H](F)C1 (stereo partly drawn) [Compound 344B, 1-(3,3-difluorocyclopentyl)-N-{[3-(4-{1[(3S,4R)-3-fluoro-1-methylpiperidin-4-yl]amino}-1-(2,2,2-trifluoroethyl)-1H-indol-2-yl)-1,2,4-oxadiazol-5-yl]methyl}-1H-pyrazole-4-carboxamide]
* (* = 0 μM ≤ SC150 < 0.1 μM)	CN1CC[C@@H](Nc2cccc3c2cc(-c2noc(CNC(=O)c4ccn(C5CCC(F)C5)c4)n2)n3CC(F)(F)F)[C@@H](F)C1 (stereo partly drawn) [Compound 345B, N-{[3-(4-{[(3S,4R)-3-fluoro-1-methylpiperidin-4-yl]amino}-1-(2,2,2-trifluoroethyl)-1H-indol-2-yl)-1,2,4-oxadiazol-5-yl]methyl}-1-(3-fluorocyclopentyl)-1H-pyrrole-3-carboxamide]
* (* = 0 μM ≤ SC150 < 0.1 μM)	CCN1CC[C@@H](Nc2cccc3c2cc(-c2noc(CNC(=O)c4ccn(C5CCC(F)(F)C5)c4)n2)n3CC(F)(F)F)[C@@H](F)C1 (stereo partly drawn) [Compound 346B, 1-(3,3-difluorocyclopentyl)-N-{[3-(4-{[(3S,4R)-1-ethyl-3-fluoropiperidin-4-yl]amino}-1-(2,2,2-trifluoroethyl)-1H-indol-2-yl)-1,2,4-oxadiazol-5-yl]methyl}-1H-pyrrole-3-carboxamide]
* (* = 0 μM ≤ SC150 < 0.1 μM)	CN1CC[C@@H](Nc2cccc3c2cc(-c2noc(CNC(=O)c4ccn(C5CCC(F)(F)C5)c4)n2)n3CC(F)(F)F)[C@@H](F)C1 (stereo partly drawn) [Compound 347B, 1-(3,3-difluorocyclopentyl)-N-{[3-(4-{[(3S,4R)-3-fluoro-1-methylpiperidin-4-yl]amino}-1-(2,2,2-trifluoroethyl)-1H-indol-2-yl)-1,2,4-oxadiazol-5-yl]methyl)-1H-pyrrole-3-carboxamide]

From US11807644B2 (PMV Pharmaceuticals, Inc., priority 2020, dated 2023)
